Converted amounts (≈) assume the structure as drawn. The source made the active and inactive calls. No cut-off for these calls is given here.
How the values were obtained:
Escherichia coli = experiment: Antibacterial activity against Escherichia coli ATCC 25922 assessed as inhibition of visible bacterial growth incubated for 24 hrs by CLSI based broth microdilution method; type: functional
Staphylococcus aureus [1] = experiment: Antibacterial activity against methicillin resistant Staphylococcus aureus; type: functional
Staphylococcus aureus [2] = experiment: Antibacterial activity against methicillin-resistant Staphylococcus aureus ATCC 43300 assessed as post antibiotic effect at 8 times MIC measured after 1 hr; type: functional
Staphylococcus aureus [3] = experiment: Bactericidal activity against methicillin-resistant Staphylococcus aureus ATCC 43300 assessed as increase in colony forming unit count at 1 times MIC incubated after 8 hrs by time-kill assay; type: functional, organism-based
Staphylococcus aureus [4] = experiment: Drug resistance, ratio of MIC for methicillin-resistant Staphylococcus aureus ATCC 43300 after 21 passages to MIC for methicillin-resistant Staphylococcus aureus ATCC 43300 during first exposure; type: functional
Staphylococcus aureus [5] = experiment: Antibacterial activity against Staphylococcus aureus ATCC 25923 assessed as inhibition of visible bacterial growth incubated for 24 hrs by CLSI based broth microdilution method; type: functional
Staphylococcus aureus [6] = experiment: Antibacterial activity against methicillin-resistant Staphylococcus aureus ATCC 43300 assessed as inhibition of visible bacterial growth incubated for 24 hrs by CLSI based broth microdilution method; type: functional
Staphylococcus aureus [7] = experiment: Antibacterial activity against methicillin-resistant Staphylococcus aureus ATCC 43300 assessed as post antibiotic effect at 1 times MIC measured after 1 hr; type: functional
Staphylococcus aureus [8] = experiment: Antibacterial activity against methicillin-resistant Staphylococcus aureus ATCC 43300 assessed as reduction in bacterial proteins level at 0.5 to 2 microg/ml measured for 4 hrs; type: functional, organism-based; details: dose 0.5-2 µg/ml
Streptococcus agalactiae = experiment: Antibacterial activity against Streptococcus agalactiae assessed as inhibition of visible bacterial growth incubated for 24 hrs by CLSI based broth microdilution method; type: functional
Staphylococcus aureus [9] = experiment: Antibacterial activity against methicillin-resistant Staphylococcus aureus ATCC 43300 assessed as post antibiotic effect at 2 times MIC measured after 1 hr; type: functional
Staphylococcus aureus [10] = experiment: (§1) Antibacterial efficacy against methicillin-resistant Staphylococcus aureus ATCC 43300 infected in cyclophosphamide-induced neutropenic systemic infection Kunming mouse model assessed as alveolar epithelial cell necrosis at 20 mg/kg, iv pretreated with cyclophosphamide for 1 hr followed by compound addition and measured after 5 days by light microscopic analysis; type: functional, organism-based; details: time 5.0 day
Enterococcus faecalis = experiment: Antibacterial activity against Enterococcus faecalis assessed as inhibition of visible bacterial growth incubated for 24 hrs by CLSI based broth microdilution method; type: functional
Staphylococcus aureus [11] = experiment: Bactericidal activity against methicillin-resistant Staphylococcus aureus ATCC 43300 at 1 times MIC incubated upto 24 hrs by time-kill assay; type: functional, organism-based
Mycoplasma = experiment: Antibacterial activity against Mycoplasma F3 assessed as inhibition of visible bacterial growth incubated for 24 hrs by CLSI based broth microdilution method; type: functional
Staphylococcus aureus [12] = experiment: Antibacterial activity against methicillin-resistant Staphylococcus aureus ATCC 43300 assessed as post antibiotic effect at 4 times MIC measured after 1 hr; type: functional
Staphylococcus aureus [13] = experiment: as §1, with “reduction in bacterial load in kidney” for “alveolar epithelial cell necrosis”, “days” for “days by light microscopic analysis”; type: functional, organism-based; details: time 5.0 day
Staphylococcus aureus [14] = experiment: as §1, with “reduction in bacterial load in liver” for “alveolar epithelial cell necrosis”, “days” for “days by light microscopic analysis”; type: functional; details: time 5 day
Staphylococcus aureus [15] = experiment: as §1, with “reduction in bacterial load in lung” for “alveolar epithelial cell necrosis”, “days” for “days by light microscopic analysis”; type: functional; details: time 5 day
HepG2 [16] = experiment: Cytotoxicity against human HepG2 cells assessed as survival rate at 200 micromol/L incubated for 24 hrs by CCK-8 assay relative to control; type: functional; details: HepG2, 24 h, dose 200 µmol/L, read-out: Survival
[17] = Cytotoxicity against human HEK293T cells assessed as survival rate at 200 micromol/L incubated for 24 hrs by CCK-8 assay relative to control; type: toxicity, cell-based, HEK-293T; details: dose 200 µmol/L, read-out: Survival
[18] = Cytotoxicity against human HEK293T cells assessed as survival rate incubated for 24 hrs by CCK-8 assay; type: toxicity, cell-based, HEK-293T
HepG2 [19] = experiment: Cytotoxicity against human HepG2 cells assessed as survival rate incubated for 24 hrs by CCK-8 assay; type: functional, cell-based; details: HepG2, 24 h

C=C[C@]1(C)C[C@@H](OC(=O)CSCCN(CC)CC)[C@]2(C)[C@H](C)CC[C@]3(CCC(=O)[C@H]32)[C@@H](C)[C@@H]1O [TIAMULIN]
MIC (Escherichia coli): > 32 µg/mL
MIC (Staphylococcus aureus [1]): 0.5 µg/mL (≈ 1.01 µM)
PAE (Staphylococcus aureus [2]): 2.2 h
Activity (Staphylococcus aureus [3]): Active
Ratio (Staphylococcus aureus [4]): 64
MIC (Staphylococcus aureus [5]): 0.25 µg/mL (≈ 0.506 µM)
MIC (Staphylococcus aureus [6]): 0.25 µg/mL (≈ 0.506 µM)
PAE (Staphylococcus aureus [7]): 0.42 h
Activity (Staphylococcus aureus [8]): Active
MIC (Streptococcus agalactiae): 0.125 µg/mL (≈ 0.253 µM)
PAE (Staphylococcus aureus [9]): 0.91 h
Activity (Staphylococcus aureus [10]): Active
MIC (Enterococcus faecalis): > 32 µg/mL
Activity (Staphylococcus aureus [11]): Active
MIC (Mycoplasma): 0.008 µg/mL (≈ 0.0162 µM)
PAE (Staphylococcus aureus [12]): 1.54 h
Activity (Staphylococcus aureus [13]): inactive

C=C[C@]1(C)C[C@@H](OC(=O)CSC(C)(C)CNC(=O)[C@H](N)C(C)C)[C@]2(C)[C@H](C)CC[C@]3(CCC(=O)[C@H]32)[C@@H](C)[C@@H]1O [VALNEMULIN]
Activity (Staphylococcus aureus [14]): 0.71 log10CFU
Activity (Staphylococcus aureus [15]): 0.98 log10CFU
viability at 200 µM (HepG2 [16]): 12%
viability at 24 h, 200 µM [17]: 16%
IC50 at 24 h [18]: 52 µM
IC50 (HepG2 [19]): 102 µM
Activity (Staphylococcus aureus [10]): inactive
Activity (Staphylococcus aureus [13]): inactive
